Experimental data published in BindingDB's records for doi:10.1074/jbc.M114.564278 (University of Michigan, 2014).
Where a SMILES comes first, the peptide text is derived from it. [ ]: non-standard residue; d: D form. The star is where a group is joined. X1 = O=C(O)c1cc(NC(=S)*)ccc1-c1c2ccc(=O)cc-2oc2cc(O)ccc12; Ala(3-Me-diazirin-3-yl) = CC1(C[C@H](N)C(=O)O)N=N1; βAla = NCCC(=O)O

How the values were obtained:
[1] = target: T1, Acyl-[acyl-carrier-protein]--UDP-N-acetylglucosamine O-acyltransferase (Escherichia coli (strain K12), UniProt P0A722); assay: Fluorescence Polarization Assay; conditions: pH 8
T1 sequence (P0A722 whole entry): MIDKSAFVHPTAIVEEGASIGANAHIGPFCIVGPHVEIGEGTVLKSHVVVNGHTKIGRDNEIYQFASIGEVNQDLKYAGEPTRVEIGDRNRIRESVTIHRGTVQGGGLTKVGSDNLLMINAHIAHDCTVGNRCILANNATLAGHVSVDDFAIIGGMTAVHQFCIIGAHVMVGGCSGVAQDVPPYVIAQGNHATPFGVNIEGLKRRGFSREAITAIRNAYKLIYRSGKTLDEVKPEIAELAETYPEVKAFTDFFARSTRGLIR
Description: (§1) The fluorescence polarization assay was performed as previously described [Jenkins et al., ACS Chem. Biol., 7:1170-1177]. In 384-well black Costar plates, LpxA or His6-LpxD were serially diluted while holding the fluorescent peptide at 20 nM in a final volume of 50 μl in 20mM HEPES pH 8.0 (0.01% DMSO). The wells were gently mixed and incubated at 30 °C in the dark for 15 min. Polarization was measured on a SpectraMax M5 plate reader in triplicate with readings taken at λex = 485 nm and λem = 525 nm.

[2] = target: T2, UDP-3-O-(3-hydroxymyristoyl)glucosamine N-acyltransferase (Escherichia coli (strain K12), UniProt P21645); assay: Fluorescence Polarization Assay; conditions: pH 8
T2 sequence (P21645 whole entry): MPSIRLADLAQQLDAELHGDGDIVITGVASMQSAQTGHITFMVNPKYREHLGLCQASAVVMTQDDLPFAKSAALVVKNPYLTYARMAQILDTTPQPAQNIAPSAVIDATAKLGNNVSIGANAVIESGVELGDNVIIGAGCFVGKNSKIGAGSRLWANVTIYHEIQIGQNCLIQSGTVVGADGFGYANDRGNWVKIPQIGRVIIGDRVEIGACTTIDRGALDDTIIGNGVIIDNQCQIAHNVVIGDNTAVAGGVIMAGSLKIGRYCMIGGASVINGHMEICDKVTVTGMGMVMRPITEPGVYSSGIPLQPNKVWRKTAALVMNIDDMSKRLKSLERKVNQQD
Description: as §1

| Molecule | Kd [1] | Kd [2] |
| --- | --- | --- |
| H-TNLYML-NH2 [RJPXD33Δ6] | 23 µM |  |
| CC[C@H](C)[C@H](NC(=O)[C@H](CC(=O)O)NC(=O)[C@H](Cc1c[nH]c2ccccc12)NC(=O)[C@H](CCCCN)NC(=O)[C@@H]1CCCN1C(=O)[C@H](CC1(C)N=N1)NC(=O)[C@H](CCSC)NC(=O)[C@H](Cc1ccc(O)cc1)NC(=O)[C@H](CC(C)C)NC(=O)[C@H](CC(N)=O)NC(=O)[C@@H](NC(=O)CCNC(=S)Nc1ccc(-c2c3ccc(=O)cc-3oc3cc(O)ccc23)c(C(=O)O)c1)[C@@H](C)O)C(=O)N1CCC[C@H]1C(N)=O [FITC-(βa)TNLYM(L-photoleucine)PKWDIP-CONH2] ({X1-βAla}-TNLYM[Ala(3-Me-diazirin-3-yl)]PKWDIP-NH2) | 32 µM | 1.1 µM |
| CC[C@H](C)[C@H](NC(=O)[C@H](CC(=O)O)NC(=O)[C@H](Cc1c[nH]c2ccccc12)NC(=O)[C@H](CCCCN)NC(=O)[C@@H]1CCCN1C(=O)[C@H](CC(C)C)NC(=O)[C@H](CCSC)NC(=O)[C@H](Cc1ccc(O)cc1)NC(=O)[C@H](CC(C)C)NC(=O)[C@H](CC(N)=O)NC(=O)[C@@H](NC(=O)CCNC(=S)Nc1ccc(-c2c3ccc(=O)cc-3oc3cc(O)ccc23)c(C(=O)O)c1)[C@@H](C)O)C(=O)N1CCC[C@H]1C(N)=O [FITC-(βa)TNLYMLPKWDIP-CONH2] ({X1-βAla}-TNLYMLPKWDIP-NH2) | 17 µM | 0.6 µM |
| CSCC[C@H](NC(=O)[C@H](Cc1ccc(O)cc1)NC(=O)[C@H](CC(C)C)NC(=O)[C@H](CC(N)=O)NC(=O)[C@@H](NC(=O)CCNC(=S)Nc1ccc(-c2c3ccc(=O)cc-3oc3cc(O)ccc23)c(C(=O)O)c1)[C@@H](C)O)C(=O)N[C@@H](CC(C)C)C(=O)N1CCC[C@H]1C(=O)N[C@@H](CCCCN)C(=O)N[C@@H](Cc1c[nH]c2ccccc12)C(=O)N[C@@H](CC(=O)O)C(=O)N[C@@H](CC1(C)N=N1)C(=O)N1CCC[C@H]1C(N)=O [FITC-(βa)TNLYMLPKWD(L-photoleucine)P-CONH2] ({X1-βAla}-TNLYMLPKWD[Ala(3-Me-diazirin-3-yl)]P-NH2) | 22 µM | 0.8 µM |
| CSCC[C@H](NC(=O)[C@H](Cc1ccc(O)cc1)NC(=O)[C@H](CC(C)C)NC(=O)[C@H](CC(N)=O)NC(=O)[C@@H](NC(=O)CCNC(=S)Nc1ccc(-c2c3ccc(=O)cc-3oc3cc(O)ccc23)c(C(=O)O)c1)[C@@H](C)O)C(=O)N[C@@H](CC(C)C)C(=O)O [FITC-(βa)TNLYML-COOH] ({X1-βAla}-TNLYML-OH) | 4.4 µM | 36 µM |
| H-TNLYML-OH [RJPXD33Δ6-COOH] | 2.1 µM |  |

Next, values leading:

| Kd [1] | Kd [2] | Molecule |
| --- | --- | --- |
| 50 µM | 2.1 µM | CC[C@H](C)[C@H](NC(=O)[C@H](CC(=O)O)NC(=O)[C@H](Cc1c[nH]c2ccccc12)NC(=O)[C@H](CCCCN)NC(=O)[C@@H]1CCCN1C(=O)[C@H](CC(C)C)NC(=O)[C@H](CCSC)NC(=O)[C@H](Cc1ccc(O)cc1)NC(=O)[C@H](CC1(C)N=N1)NC(=O)[C@H](CC(N)=O)NC(=O)[C@@H](NC(=O)CCNC(=S)Nc1ccc(-c2c3ccc(=O)cc-3oc3cc(O)ccc23)c(C(=O)O)c1)[C@@H](C)O)C(=O)N1CCC[C@H]1C(N)=O [FITC-(βa)TN(L-photoleucine)YMLPKWDIP-CONH2] ({X1-βAla}-TN[Ala(3-Me-diazirin-3-yl)]YMLPKWDIP-NH2) |
| 12 µM | 22 µM | CSCC[C@H](NC(=O)[C@H](Cc1ccc(O)cc1)NC(=O)[C@H](CC(C)C)NC(=O)[C@H](CC(N)=O)NC(=O)[C@@H](NC(=O)CCNC(=S)Nc1ccc(-c2c3ccc(=O)cc-3oc3cc(O)ccc23)c(C(=O)O)c1)[C@@H](C)O)C(=O)N[C@@H](CC(C)C)C(N)=O [FITC-(βa)TNLYML-CONH2] ({X1-βAla}-TNLYML-NH2) |
